Values of other authors, collected in patent US20240277629A1, “USE OF THYROID HORMONE T4 IN A HIGH VERSATILITY TREATMENT IN PATIENTS TAKING PROTON PUMP INHIBITORS” (ALTERGON S.A., priority 2021, published 2024).

Details: patients under therapy with PPIs (Centanni et al. 2006)

N[C@@H](Cc1cc(I)c(Oc2cc(I)c(O)c(I)c2)c(I)c1)C(=O)O [T4, levothyroxine]
Increase of daily dose of T4 needed to obtain the desired blood levels of thyroid hormone: 37%
